Results on three molecules are retold here after patent publication US8338599B2, “Compounds having a potentiating effect on the activity of ethionamide and uses thereof” (priority 2006, dated 2012).

pIC50: −log10 of the molar value. In brackets after ≈: the same amount, converted by molar mass. Several values for one entry are separate records, joined by “and”; a condition that tells them apart may be missing. Equal values may be shown once.

Data set [1] in a line: Measurement of the solubility (PBS pH 7.4 vs methanol, LC/MS). It is filed as physicochemical. The following applies: pH 7.4, aqueous buffer, kinetic from dmso stock. The method, then: e) Measurement of the Solubility of the Compounds of the Invention
40 μl of a solution containing a compound of the invention at a concentration of 10 mM in DMSO were diluted in 1.960 ml of methanol, and another 40 μl were diluted in 1.960 ml of a PBS solution containing 675 mM of NaCl, 13.5 mM of KCl, 50 mM of Na2HPO4.2H2O and 10 mM of KH2PO4 at a pH of 7.4. The two solutions were stirred for 24 hours at room temperature, and then centrifuged for 5 minutes and filtered through 0.45 μm filters. 20 μl of each solution were then diluted in 118 μl of methanol and analyzed by liquid chromatography coupled to mass spectrometry (LC/MS). The solubility was determined by the ratio of the areas under the curve of the mass signal for the compound of the invention, according to the following equation: […]

Data set [2] concerns M. tuberculosis H37Rv. The data set is described as follows: Ethionamide-potentiating effect, fluorimetric detection on Bactec MGIT 960. Type of data set: cell-based.
Data set [3] concerns the target T1, EthR protein (Mycobacterium tuberculosis, UniProt P9WMC1). The data set is described as follows: Inhibition of interaction of EthR with its target DNA sequence (BIAcore). Type of data set: binding, M. tuberculosis H37Rv. To be noted: for inhibition at 3 µM: compound 3 μM, EthR 540 nM, 37° C. The method, then: a) Measurement of the Activity of the Compounds on the Inhibition of Interaction of EthR with its Target DNA Sequence
The in vitro measurements of inhibition of binding of the EthR protein to its target DNA sequence were performed on a machine of BIAcore®2000 type (AB, Uppsala, Sweden).
The chips used are CM5 chips sold by the company GE Healthcare. Both the channels of a chip were activated with a solution containing 200 mM of EDC(N-ethyl-N′-(3-[…])carbodiimide) and 50 mM of NHS (N-hydroxysuccinimide). Next, streptavidin (500 ng/μl in a solution containing 10 mM of sodium acetate (pH 3.5) was injected over 12 minutes at a flow rate of 10 μl/minute. The 106-base-pair biotinylated DNA fragment corresponding to the ethA-R intergene region was deposited on one of the two channels of the chip at a rate of 200 ng/ml in order to obtain stable binding of streptavidin corresponding to 50 RU (resonance units). This DNA fragment was obtained by PCR using the chromosomal DNA of M. tuberculosis H37Rv as matrix and O-270: 5′-[…]-3′ (SEQ ID: No. 1) and O-271: 5′-biotin-[…]-3′ (SEQ ID: No. 2). The second channel was functionalized with a 113-base-pair biotinylated DNA fragment (fragment +14 to +127 of the bla gene of E. coli PCR-amplified using the following oligonucleotides: O-343: 5′-[…]-3′ (SEQ ID: No. 3) and O-344: 5′-biotin-[…]-3′ (SEQ ID: No. 4).
Measurement of the binding of the EthR protein to the immobilized DNA was performed at 37° C. in a reference buffer containing 10 mM of Tris-HCl (pH=7.5), 200 mM of NaCl, 0.1 mM of EDTA, 1 mM of DTT and 1% of DMSO at a flow rate of 20 μl/minute. The specific interaction (SI) of EthR with the 106-base-pair double-stranded DNA sequence, expressed in resonance units, corresponds to the difference in signal observed between the two channels.
For each inhibition measurement, the compounds of the invention are dissolved in the reference buffer at a concentration of 3 μM. The compounds of the invention are then incubated in the presence of the protein (540 nM) at 37° C. for 5 minutes, and each solution is then injected onto the two channels of the chip for 3 minutes at a flow rate of 20 μl/minute. The inhibition values are calculated at the end of the injection according to the following equation: […]
in which SIEthR corresponds to the value measured without ligand and SIEthR+ligand corresponds to the value measured in the presence of to ligand.

Data set [4] deals with M. bovis BCG. Type of data set: cell-based, M. bovis BCG 1173P2. The following applies: from MIC of ETH alone (6 μM) and MIC of ETH with 25 μM compound.
Data set [5] has as its target T1, EthR protein. The data set is described as follows: In vitro measurement of the IC50 (EthR/DNA binding, BIAcore). Set-up: species or system M. tuberculosis H37Rv. How it is done:
b) In Vitro Measurement of the IC50 of the Compounds of the Invention.
The in vitro measurement of this datum was performed according to the same principle as for the measurement of inhibition of the EthR/DNA binding using the BIAcore technique.
The specific interaction between EthR and the specific 106-bp DNA fragment was measured on a range of six concentrations of the compounds of the invention, this range extending from 0.11 μM to 27 μM. The IC50 values are then extrapolated from the sigmoid curves obtained.

Data set [6] deals with M. tuberculosis H37Rv. In words: Ethionamide-potentiating effect, RIA detection method on Bactec 460 in 12B medium. It is filed as cell-based. The following applies: with 25 μM of compound.
Data set [7] relates to Mycobacterium tuberculosis bacilli (strain H37RV). The data set is described as follows: Agar gel well test of ETH potentiation in Petri dishes. It is filed as cell-based.
The mark [8] stands for this setting: strain 1%, no ETH, ligand 25 μM.
The mark [9] stands for this setting: strain 100%, ETH 0.025 μg/mL + ligand 25 μM.
Setting [10] is: strain 100%, ETH 0.05 μg/mL + ligand 25 μM.
Where [11] appears, read: strain 100%, ETH 0.1 μg/mL + ligand 25 μM.
The mark [12] stands for this setting: strain 100%, ETH 0.25 μg/mL + ligand 25 μM.
The mark [13] stands for this setting: strain 100%, no ETH, ligand 25 μM.

T1 sequence (P9WMC1 whole entry, looked up): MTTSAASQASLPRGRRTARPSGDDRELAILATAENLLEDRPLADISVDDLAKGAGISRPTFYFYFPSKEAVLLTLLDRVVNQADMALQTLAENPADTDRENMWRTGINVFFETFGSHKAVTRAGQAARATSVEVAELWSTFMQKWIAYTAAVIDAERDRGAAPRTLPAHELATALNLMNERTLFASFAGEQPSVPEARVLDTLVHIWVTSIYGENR

In data set [1], `O=C(Cc1cccs1)N1CCC(c2nc(-c3cccs3)no2)CC1` [Compound 43, 2-thiophen-2-yl-1-[4-(3-thiophen-2-yl[1,2,4]oxadiazol-5-yl)piperid-1-yl]ethanone] registered a solubility at 24 h of 26.9 µg/mL (≈ 74.8 µM). The “bacterial growth-inhibiting properties of the compound alone” value in data set [2] (25 μM, no ETH (lines A5 and D3)) is on record as “absence of bacterial growth-inhibiting properties”. Further, the MIC in data set [2] (Mycobacterium tuberculosis, H37RV, compound 25 μM, read-out: MIC for ETH in the presence of compound) was < 0.025 µg/mL and < 0.15 µM. The “potentiation of the ethionamide activity (factor)” value in data set [2] (compound 25 μM) is listed as at least 40 fold. For the same molecule, in data set [2] (compound 25 μM, listed as compound 43), the “potentiation of the ethionamide activity (factor)” value is “about 40 fold”. In addition, in data set [2] (setting [8]), the State entry was “R”; the “fluorescence reading D + 0” value was 0; the “fluorescence reading D + 1” value was 0; the “fluorescence reading D + 5 (first column, c6)” value turned out to be 0. In data set [2] (setting [8]), the “fluorescence reading D + 5 (second column, c7)” value stood at 0; the “fluorescence reading D + 6” value was found to be 0; the “fluorescence reading D + 7 (first column, c9)” value was found to be 168; the “fluorescence reading D + 7 (second column, c10)” value is listed as 292. The “fluorescence reading J + 8” value in data set [2] (setting [8]) came out at 400. In addition, in data set [2] (setting [9]), the State result is listed as “S”; the “fluorescence reading D + 0” value was 0; the “fluorescence reading D + 1” value stood at 0; the “fluorescence reading D + 5 (first column, c6)” value stood at 0. In addition, in data set [2] (setting [9]), the “fluorescence reading D + 5 (second column, c7)” value is recorded as 0; the “fluorescence reading D + 6” value was found to be 0; the “fluorescence reading D + 7 (first column, c9)” value stood at 0; the “fluorescence reading D + 7 (second column, c10)” value turned out to be 0. For the same molecule, in data set [2] (setting [9]), the “fluorescence reading J + 8” value came out at 0. In data set [2] (setting [10]), the State entry is listed as “S”; the “fluorescence reading D + 0” value turned out to be 0; the “fluorescence reading D + 1” value stood at 0; the “fluorescence reading D + 5 (first column, c6)” value was 0. In data set [2] (setting [10]), the “fluorescence reading D + 5 (second column, c7)” value is 0; the “fluorescence reading D + 6” value is recorded as 0; the “fluorescence reading D + 7 (first column, c9)” value stood at 0; the “fluorescence reading D + 7 (second column, c10)” value is 0. Besides, the “fluorescence reading J + 8” value in data set [2] (setting [10]) turned out to be 0. In data set [2] (setting [11]), the State entry is “S”; the “fluorescence reading D + 0” value is reported as 0; the “fluorescence reading D + 1” value is 0; the “fluorescence reading D + 5 (first column, c6)” value is 0. Besides, in data set [2] (setting [11]), the “fluorescence reading D + 5 (second column, c7)” value is recorded as 0; the “fluorescence reading D + 6” value came to 0; the “fluorescence reading D + 7 (first column, c9)” value stood at 0; the “fluorescence reading D + 7 (second column, c10)” value came to 0. For the same molecule, the “fluorescence reading J + 8” value in data set [2] (setting [11]) is listed as 0. Moreover, in data set [2] (setting [12]), the State result was “S”; the “fluorescence reading D + 0” value amounted to 0; the “fluorescence reading D + 1” value was determined as 0; the “fluorescence reading D + 5 (first column, c6)” value is listed as 0. Further, in data set [2] (setting [12]), the “fluorescence reading D + 5 (second column, c7)” value was 0; the “fluorescence reading D + 6” value was found to be 0; the “fluorescence reading D + 7 (first column, c9)” value is recorded as 0; the “fluorescence reading D + 7 (second column, c10)” value was 0. The “fluorescence reading J + 8” value in data set [2] (setting [12]) was found to be 0. Besides, in data set [2] (setting [13]), the State entry is on record as “R”; the “fluorescence reading D + 0” value was 0; the “fluorescence reading D + 1” value is recorded as 0; the “fluorescence reading D + 5 (first column, c6)” value is 400. Moreover, in data set [2] (setting [13]), the “fluorescence reading D + 5 (second column, c7)” value is 400; the “fluorescence reading D + 6” value was 400; the “fluorescence reading D + 7 (first column, c9)” value is 400; the “fluorescence reading D + 7 (second column, c10)” value is reported as 400. The “fluorescence reading J + 8” value in data set [2] (setting [13]) is recorded as 400. In data set [3], this molecule had an inhibition at 3 µM of 93%. Besides, the Potentiation % in data set [4] is listed as 2500%. The molecule also gave a pIC50 in data set [5] of 6.28.

In data set [3], `[N-]=[N+]=NCC(=O)N1CCC(c2nc(-c3cccs3)no2)CC1` [Compound I-1, 2-azido-1-[4-(3-thiophen-2-yl[1,2,4]oxadiazol-5-yl)piperid-1-yl]ethanone] displayed an inhibition at 3 µM of 33%. The molecule also gave an inhibition at 1 µM in data set [3] (footnote c: DNA 20 RU, EthR 200 nM, compound 1 μM) of 45%. The “ETH concentration giving the same growth-inhibiting effect” value in data set [6] is 0.1 μg/ml and 0.6 μM. Further, the Potentiation % in data set [4] came out at 2500%. In addition, the pIC50 in data set [5] was 5.81.

Take `CC(C)(C)OC(=O)N1CCC(c2nc(-c3cccs3)no2)CC1` [Compound I-3, t-butyl ester of 4-(3-thiophen-2-yl-1,2,4-oxadiazol-5-yl)piperidine-1-carboxylic acid]: the “inhibition of mycobacterial growth around the well” value is given as “does not show any bacterial toxicity” in data set [7] (20 nmol of compound alone (hole A2), three weeks 37° C.); “strongly inhibit the mycobacterial growth” in data set [7] (2 μg or 4 μg of ETH + 20 nmol of compound (holes C1 and C2)). Further, the “factor of reduction of the effective dose of ETH” value in data set [7] (combination with ETH, test behind the figure not stated) is “about 10 fold”.
